According to patent US6455045B1, “Immunogenic compounds with in particular an anti-cytokine effect, preparation process, pharmaceutical compositions and kits containing them” (priority 1991, dated 2002):
No end group written: not given here.

How the values were obtained:
[1] = system: T-cells originating from fresh human blood; format: cell-based
[2] = system: HIV-1 env bands (gp160, gp120, gp41); experiment: Western blot (Abott HIV-1 detection kit) with serums of peptide-immunized mice; format: in vivo; conditions: 15 μg per injection days 0, 30, 60, day 70
Method: Four batches of five mice were chosen to receive the peptides SI Nos. 1, 2, 6, 10 respectively.
The peptides prepared as described in Example 2 were injected on days 0, 30, 60 in a quantity of 15 μg per injection. On day 70 the mice were sacrificed, their T-cells were isolated (spleen and ganglia) and their serum was stored.

Row | Substance | activation of T-cells (incorporation of labelled thymidine) [1] | Western blot bands showing a signal [2]
1 | Cys-Ser-Ala-Thr-Glu-Lys-Leu-Trp-Val-Thr-Val-Tyr-Tyr [SI No. 7] | low activation according to a dose-effect curve | –
2 | His-Glu-Asp-Ile-Ile-Ser-Leu-Trp-Asp-Gln-Ser-Leu-Lys [SI No. 6] | low activation according to a dose-effect curve | gp60 and gp120 bands showed a signal
3 | QLLLNGSLAEEE [SI No. 10] | low activation according to a dose-effect curve | gp60 and gp120 bands showed a signal
4 | Cys-Gln-His-Leu-Leu-Gln-Leu-Thr-Val-Trp-Gly-Ile-Lys-Glu or Gln-Leu-Glu Gln-Ala-Arg-Ile-Leu-Ala-Val-Glu-Arg-Tyr-Leu-Lys-Asp-Gln [SI No. 5] | low activation according to a dose-effect curve | –
5 | SI No. 2: peptide SI No. 2, a or b form not stated; prepared in proteosomes as in Example 2 (probably 2b); HIV-1 gp41 region 735-753 (DRPEGIEEEGGERDRDRS) | – | gp160 and gp41
6 | SI No. 1: peptide SI No. 1, a or b form not stated; prepared in proteosomes as in Example 2 (probably 1b); HIV-1 gag P7 region (IARNCRAPRKKG) | – | gp60 and gp120 bands showed a signal
